# Measurements taken from patent US9937220B2, “Anti-diabetic nutraceutical composition from palm leaf extract” (priority 2009, dated 2018).
# System: STZ-induced diabetic rats
# Experiment: Body weight of STZ-induced diabetic rats
# Type: in vivo, rat
# Conditions: glibenclamide treated group (30 mg/kg)
# Description: Adult normal and streptozotocin-induced diabetic male Sprague Dawley rats were randomly divided into groups. Palm leaf aqueous and alcoholic extracts (PLE) were fed to normal and STZ-induced diabetic rats at 50-200 mg/kg for 8 weeks. Blood sugar levels from fasting rats were monitored weekly. Untreated rats were used as negative control and glibenclamide (30 mg/kg) treated rats used as positive control.
structure (smiles),measurement,value
COc1ccc(Cl)cc1C(=O)NCCc1ccc(S(=O)(=O)NC(=O)NC2CCCCC2)cc1 [glibenclamide],changes in body weight,Significant changes in body weight
